Measurements: patent US8759095B2, “Diagnostic and therapeutic tools for diseases altering vascular function” (Universiteit Maastricht, priority 2007, dated 2014)

How the values were obtained:
endothelial glycocalyx [1] = details: in vivo; cited from earlier work
endothelial glycocalyx [2] = tested on: endothelial glycocalyx; design: species or system human; details: in vivo
[3] = tested on: TNFα-induced inflammatory responses; assay: Plasma inflammatory markers (IL-6, CRP) and circulating leukocytes after endotoxin challenge; format: in vivo, human
Description: (§1) Twentyone healthy Caucasian male volunteers were studied. […] Participants had no history of cardiovascular disease. […] All experiments were performed after an overnight fast.

[4] = tested on: sublingual microcirculation; assay: Microvascular glycocalyx / capillary density by OPS imaging of the sublingual microcirculation after endotoxin challenge; format: in vivo, human; details: upon endotoxin challenge; from 59±7 at baseline; p<0.01
Description: as §1
Thickness of endothelial glycocalyx in individual capillary blood vessels was measured by orthogonal polarization spectral (OPS) imaging of the sublingual microcirculation (Cytometrics, Philadelphia, Pa., USA) as previously published (Nieuwdorp et al. 2006, supra; Nieuwdorp et al. 2006. Diabetes 55: 1127-32). In short, the width of flowing erythrocytes was measured in 5 individual capillaries before and immediately after capillary leukocyte passage. In healthy capillaries, the glycocalyx limits capillary blood filling by separating erythrocytes from the luminal endothelial surface, which is known as the red cell exclusion zone. […] Images sized 728×576 pixels were recorded were collected with a 5× objective providing a 325× magnification at a frame rate of 25/second. […] The anatomical capillary diameter and the width of the flowing erythrocyte column were measured using digital calipers prior to and after spontaneous capillary leukocyte passage. Per participant, glycocalyx dimension was determined in at least 5 capillaries. […] In addition as indication of capillary density, the number of capillaries per field was counted.

endothelial glycocalyx [5] = assay: Estimation of systemic glycocalyx volume (Dextran 40 distribution volume minus circulating plasma volume) after endotoxin challenge; format: in vivo, human; design: haematocrit values: unit not given here; details: 4 hours after endotoxin infusion
Description: as §1
Systemic glycocalyx volume was estimated as previously published by subtracting circulating plasma volume from the intravascular distribution volume of the glycocalyx permeable tracer Dextran 40 (Nieuwdorp M et al. 2006. Diabetes 55: 480-6; Suffredini et al. 1999, supra). Circulating plasma volume was calculated with a previously published method (Orth et al. 1998. Anesth Analg 87: 1234-8). The intravascular distribution volume of labelled autologous erythrocytes was used to quantify the circulating blood volume. Blood was drawn and centrifuged at 1,330 rpm for 5 minutes. Subsequently, sodium fluorescein (fluorescein-di-Na 25%, 250 mg/ml, AZUA Pharmacy, Amsterdam, the Netherlands) was added to the erythrocyte fraction for 5 minutes. After careful washing, labelled erythrocytes were resuspended in saline to the initial volume (60 ml) and re-infused. Subsequently, blood was drawn at 4, 5, 6, and 7 minutes after infusion. The fraction of labelled erythrocytes in the total erythrocyte pool was used to estimate the circulating erythrocyte volume (VERY). Pre-injection unlabeled erythrocytes served as negative control. The fraction of labelled erythrocytes in the blood was measured using a FACScan analyzer (FACS Calibur®, Becton Dickinson, Mountain View, USA). At least 100,000 cells were counted. Data were analyzed by Cellquest (Becton Dickinson, San Jose, Calif., USA). Haematocrit (Ht) was measured after centrifugation of heparinized blood in a Hettich-Haematokrit centrifuge at 10,000 rpm during 5 minutes (Hettich, Tuttlingen, Germany). Circulating plasma volume was calculated from VERY and large vessel Ht by the following formula: circulating plasma volume=([1−Ht]×VERY)/Ht.
Dextran 40 (Rheomacrodex; NPBI International, Emmercompascuum, the Netherlands) was used as a probe to estimate total intravascular volume, which includes the glycocalyx compartment. A bolus of 10 ml Dextran 1 (Promiten; NPBI International, Emmer-compascuum, the Netherlands) was injected to attenuate the risk of anaphylactic reactions prior to Dextran 40 infusion. 100 ml Dextran 40 was injected intravenously, followed by repeated blood sampling at 5, 7, 10, 15, 20, and 30 minutes. Dextran 40 concentration was calculated by measuring the increase in glucose concentration in the post infusion samples after hydrolyzation of Dextran 40 glucose polymers (Van Kreel et al. 1998. Clin Chim Acta 275: 71-80). Glucose concentration per time point was assessed in duplicate using the hexokinase method (Gluco-quant, Hitachi 917; Hitachi). To determine the initial intravascular distribution volume of Dextran 40, the concentration of Dextran 40 at the time of injection was estimated by exponential fitting of the measured Dextran 40 concentrations. Exponential time constants (τ [min]) were used to determine Dextran 40 systemic clearance rates (τ^−1 min^−1).

[6] = tested on: endotoxin-induced inflammatory reactions; assay: Clinical symptoms and vital signs after intravenous endotoxin challenge in healthy male volunteers; format: in vivo, human
Description: as §1

[7] = tested on: thrombin generation and fibrinolysis; assay: Coagulation and fibrinolysis markers (prothrombin fragment F1+2, D-dimer) after endotoxin challenge; format: in vivo, human; details: p<0.05
Description: as §1

glycocalyx shedding = assay: Plasma glycocalyx components (hyaluronan, heparan sulphate) and hyaluronidase activity after endotoxin challenge; format: in vivo, human
Description: as §1

monocytes = assay: Leukocyte differentiation and monocyte flow cytometry after endotoxin challenge; format: in vivo, human
Description: as §1
Whole blood samples were collected in pyrogen-free lithium-heparin tubes and then incubated for 10 min with 9 volumes ice-cold erythrocyte lysis buffer and centrifuged for 10 min at 4° C. Remaining cells were washed twice with ice-cold PBS. For flow cytometric analysis 0.5×10^6 cells were incubated in FACS buffer mixed with antibody. All reagents were titrated to obtain optimal results as recommended by the manufacturers. Cell surface staining was performed with Fluorescein Isothiocyanate (FITC) labelled mouse anti-human CD14 (IgG2a), anti-human Allophycocyanin (APC) labelled CD18 (IgG1) and Phycoerythrin (PE) labelled anti-human CD11b (IgG1) and CD62L (IgG1) (R&D Systems, San Jose, Calif., USA). Appropriate isotype control antibodies were used to correct for non-specific antibody binding. After staining, the cells were washed, fixed in 4% paraformaldehyde, and analyzed by flow cytometry using a FACS Calibur flow cytometer. Data were analyzed with CellQuest software (Becton Dickinson, Franklin Lakes, N.J., USA).

O=[N+]([O-])OCC(CO[N+](=O)[O-])O[N+](=O)[O-] [nitroglycerine]
effect on the glycocalyx as known (endothelial glycocalyx [1]): known to cause damage to the glycocalyx
status of the glycocalyx (RBCW, glycocalyx width; FIGS. 5A and 5B) (endothelial glycocalyx [2]): a clear distinction between the status of the glycocalyx in treated and untreated subjects

Etanercept
number of circulating leukocytes compared to baseline ([3]; 4 hours after endotoxin, both treatment groups): doubled
plasma CRP ([3]; after endotoxin challenge, from 0.6±0.4 at baseline, p<0.01): 16.0 ± 3.4 mg/L
plasma IL-6 ([3]; after endotoxin challenge, from 4.6±3.1 at baseline, p<0.05): 127 ± 98 pg/mL
capillary density (number of capillaries per field) [4]: 43±15
systemic glycocalyx volume (endothelial glycocalyx [5]; baseline 1.7±0.5, p<0.01): 1.1 ± 0.2 L
systemic Dextran 40 clearance rate (endothelial glycocalyx [5]; from 0.009±0.002 at baseline, ns): 0.009 ± 0.001 min⁻¹
haematocrit values (endothelial glycocalyx [5]; from 0.43±0.02 at baseline, ns): 0.42±0.02
circulating plasma volume (endothelial glycocalyx [5]; from 2.9±0.5 at baseline, ns): 2.8 ± 0.6 L
Dextran 40 distribution volume (endothelial glycocalyx [5]; from 4.6±0.6 at baseline, p<0.05): 3.9 ± 0.5 L
rate of Dextran 40 plasma clearance (FIG. 1B) (endothelial glycocalyx [5]; saline group versus Etanercept group): increased in the saline group as compared with Etanercept group
body temperature ([6]; 4 hours after endotoxin infusion, from 36.6±0.5 at baseline, ns): 37.3±0.5 °C
heart rate ([6]; 4 hours after endotoxin infusion, from 62±4 at baseline, ns): 69±3
diastolic blood pressure ([6]; 4 hours after endotoxin infusion, from 69±6 at baseline, ns): 67±6 mm Hg
systolic blood pressure ([6]; 4 hours after endotoxin infusion, from 125±7 at baseline, ns): 123±10 mmHg
clinical symptoms of endotoxemia (chills, headache, myalgia, nausea) ([6]; after endotoxin infusion, saline versus Etanercept group, data not shown): more frequently and more intensive in the saline group compared to the Etanercept group
D-dimer ([7]; from 0.2±0.1 at baseline): 0.3 ± 0.1 mg/L
prothrombin activation fragment F1+2 ([7]; from 0.3±0.1 at baseline): 2.1 ± 0.9 nmol/L
plasma hyaluronidase activity, change compared to baseline (glycocalyx shedding; 4 hours after endotoxin infusion, ns): −8±14%
plasma heparan sulphate levels (glycocalyx shedding; 24 hours after endotoxin infusion, p<0.01 versus saline group): 7.4 ± 1.5 µg/mL
heparan sulphate plasma levels (glycocalyx shedding; during the 4 hours after endotoxin challenge, from 5.4±1.3, ns): 5.1 ± 1.0 µg/mL
plasma hyaluronan levels (glycocalyx shedding; within first hour after endotoxin infusion, from 58±13, p<0.05): 46 ± 10 ng/mL
reduction of monocyte count (monocytes; 4 hours after endotoxin infusion, p<0.05 compared to baseline): 51±32%
change in percentage of CD62L+ (L-selectin) expressing monocytes (monocytes; 4 hours after endotoxin, p<0.05 versus saline group): +66±42%
CD14+ monocyte counts (monocytes; after endotoxin infusion, ns between groups): 26±13%
CD11b+/CD18+ (Mac-1 complex) monocyte count, median (monocytes; after endotoxin infusion, p<0.01 versus saline): 0.65±0.1
